Assay results from patent publication US5169780A, “Enantiomeric enrichment and stereoselective synthesis of chiral amines” (Celgene Corporation, priority 1990, dated 1992).

Experiments:
Bacillus megaterium = assay: induction of omega-amino acid transaminase production by addition of an amine to cultures; type: cell-based; conditions: 2 mM amine inducer, 30 to 40 hours; for Specific Activity (units/mg) Acetate: 40 mM acetate as carbon source; for Specific Activity (units/mg) Succinate: 40 mM succinate as carbon source
Method: (§1) Enzyme Activity: Enzyme activity is expressed herein as units/mg. A unit of enzyme activity is defined as that which produces 1 micromole of ketone per minute. For uniformity, this is measured as micromoles of 1-phenylbutan-3-one formed from R,S-1-phenyl-3-aminobutane. The following standardized assay was utilized to measure the activity of the omega-amino acid transaminases set forth in the examples which follow.
(§2) A known volume of the enzyme preparation to be tested is incubated at 37° C. and pH 7 in a solution having the following composition:
(§3) A sample is removed and 20% by volume of 12% aqueous trichloroacetic acid are added. Precipitated protein is removed by centrifugation and the concentration of 1-phenylbutan-3-one in the supernatant is determined by liquid chromatography on a 100×8 mm 4 micron Novopak phenyl column eluting with 40% isopropanol and 0.09% phosphoric acid in water. Under these conditions, 1-phenylbutan-3-one elutes at 5.3 minutes.
Enzyme Recovery: Unless otherwise indicated, cells from culture are centrifuged for 10 minutes at 10,000 G, resuspended in 10 mM of phosphate buffer at pH 7 and 0.5 mM of pyridoxal phosphate, and ruptured by two passes through a chilled French press operating at 15,000 psi. Cell debris is removed by centrifugation for one hour at 10,000 G and the enzyme-containing supernatant collected.
The following procedure exemplifies the growth of microorganisms using ammonium as the sole nitrogen source and then inducing omega-amino acid transaminase production by the addition of an amine.
Bacillus megaterium was grown in 1 L cultures in the standard salt medium supplemented with 40 mM of the indicated carbon source, 5 mM of ammonium chloride, 80 mM of phosphate buffer, and 2 mM of the amine inducer indicated below. After 30 to 40 hours, the enzyme was collected and assayed as described above.

[1] = tested on: omega-amino acid transaminase; assay: relative rates of conversion of different chiral amines by soluble enzymatic preparations; type: biochemical; conditions: for conversion to the nonchiral ketone by the transaminase: racemate subjected to the enzyme, general statement of the description
Method: as §1, §2, §3
The following procedure exemplifies the relative rates of conversion, determined directly or calculated from kinetic data, of different chiral amines by soluble enzymatic preparations utilizing the assay described above but substituting the indicated chiral amine.

[2] = tested on: omega-amino acid transaminase; assay: standardized omega-amino acid transaminase activity assay (1-phenylbutan-3-one formed from R,S-1-phenyl-3-aminobutane), B. megaterium enzyme; type: biochemical, Bacillus megaterium
Method: as §1, §2, §3
(§4) Enzyme extracts from P. putida, B. megaterium, and P. aeruginosa obtained as above were assayed as above at pH 9 in 50 mM of Tris/HCl using 30 mM of R,S-1-phenyl-3-aminobutane, with and without 100 mM of sodium pyruvate. The following relative rates of conversion were observed.
(§5) The transaminase nature of the enzymatic action is apparent from the effect of "suicide inactivators" known to be specific for transaminases {see, for example, Burnett et al., J. Bio. Chem., 225, 428-432 (1980)}, the inactivator (0.5 mM) being preincubated with the assay medium before addition of R,S-1-phenyl-3-aminobutane.
(§6) The stereoselectivity of the omega-amino acid transaminase can be seen from the corresponding assay utilizing 15 mM of R-1-phenyl-3-aminobutane (with pyruvate).

[3] = molecular target: T1, omega-amino acid transaminase (Pseudomonas aeruginosa, UniProt Q9I700); assay: standardized omega-amino acid transaminase activity assay, P. aeruginosa enzyme; type: biochemical
T1 construct: cell extracts containing the omega-amino acid transaminase then are obtained as therein described; host or cells: Pseudomonas aeruginosa ATCC 15692, cell extract
T1 sequence (Q9I700 1-448): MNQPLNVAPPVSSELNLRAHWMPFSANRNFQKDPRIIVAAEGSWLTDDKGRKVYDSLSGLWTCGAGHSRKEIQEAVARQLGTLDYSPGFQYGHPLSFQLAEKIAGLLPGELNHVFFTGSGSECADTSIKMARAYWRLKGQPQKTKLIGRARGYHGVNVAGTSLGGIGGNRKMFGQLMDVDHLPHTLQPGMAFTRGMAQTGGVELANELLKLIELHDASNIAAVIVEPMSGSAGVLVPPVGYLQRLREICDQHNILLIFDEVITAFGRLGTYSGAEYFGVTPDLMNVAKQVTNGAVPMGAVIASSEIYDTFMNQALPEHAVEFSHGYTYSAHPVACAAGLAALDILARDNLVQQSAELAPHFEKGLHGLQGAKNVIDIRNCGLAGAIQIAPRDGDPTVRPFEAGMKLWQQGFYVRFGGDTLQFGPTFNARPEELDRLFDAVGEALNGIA

[4] = tested on: omega-amino acid transaminase; assay: standardized omega-amino acid transaminase activity assay, P. putida enzyme; type: biochemical, Pseudomonas putida
Method: as §1, §2, §3
Pseudomonas putida ATCC 39213 was cultured as described in Example 1 and an enzyme extract then was obtained as therein described. The specific activity of the omega-amino acid transaminase was 0.045 units/mg.
as §4, §5, §6

[5] = tested on: omega-amino acid transaminase; assay: relative rates of conversion of 1-phenyl-3-aminobutane with different amino acceptors in place of pyruvate; type: biochemical; conditions: amino acceptor 25 mM, substrate 1-phenyl-3-aminobutane
Method: as §1, §2, §3
The following procedure exemplifies the relative rates of conversion with 1-phenyl-3-aminobutane employing different amino acceptors in place of pyruvate in the assay described above.

β-alanine transaminase = conditions: relative activities, Nakano et al. 1977; cited from earlier work
[6] = tested on: -aminobutyrate transaminase; conditions: relative activities, Nakano et al. 1977; cited from earlier work
[7] = stereoselectivity: 15 mM R-1-phenyl-3-aminobutane versus R,S-, with pyruvate
[8] = inactivator 0.5 mM preincubated before addition of R,S-1-phenyl-3-aminobutane, None = 100

CC(N)c1ccccc1 (racemic) [R,S-1-phenyl-1-aminoethane]
Specific Activity (units/mg) Acetate (Bacillus megaterium): 0.39 units/mg | Specific Activity (units/mg) Succinate (Bacillus megaterium): 0.27 units/mg | Relative Rate of Conversion R-enantiomer ([1]; amine (R,S) 10 mM): 0 | Relative Rate of Conversion S-enantiomer ([1]; amine (R,S) 10 mM): 100

CC(N)CCc1ccccc1 (racemic) [R,S-1-phenyl-3-aminobutane]
Relative Rate of Conversion B. megaterium [2, 7]: 100 | Relative Rate of Conversion P. aeruginosa [3, 7]: 100 | Relative Rate of Conversion P. putida [4, 7]: 100 | Specific Activity (units/mg) Acetate (Bacillus megaterium): 0.33 units/mg | Specific Activity (units/mg) Gluconate (Bacillus megaterium; 40 mM gluconate as carbon source): 0.26 units/mg | Specific Activity (units/mg) Glucose (Bacillus megaterium; 40 mM glucose as carbon source): 0.62 units/mg | Specific Activity (units/mg) Succinate (Bacillus megaterium): 0.28 units/mg | Relative Rate of Conversion R-enantiomer ([1]; amine (R,S) 30 mM): 5 | Relative Rate of Conversion S-enantiomer ([1]; amine (R,S) 30 mM): 100

CCC(C)N (racemic) [R,S-2-aminobutane]
Specific Activity (units/mg) Acetate (Bacillus megaterium): 0.14 units/mg | Specific Activity (units/mg) Succinate (Bacillus megaterium): 0.13 units/mg

CC(N)c1ccc(Br)cc1 (stereo not shown) [1-(4-bromophenyl)-1-aminoethane]
Relative Rate of Conversion R-enantiomer ([1]; amine (R,S) 30 mM): 0 | Relative Rate of Conversion S-enantiomer ([1]; amine (R,S) 30 mM): 100

CC(N)c1ccc([N+](=O)[O-])cc1 (stereo not shown) [1-(4-nitrophenyl)-1-aminoethane]
Relative Rate of Conversion R-enantiomer ([1]; amine (R,S) 5 mM): 0 | Relative Rate of Conversion S-enantiomer ([1]; amine (R,S) 5 mM): 100

CC(N)c1cccc2ccccc12 (stereo not drawn) [1-(α-naphthyl)1-aminoethane]
Relative Rate of Conversion R-enantiomer ([1]; amine (R,S) 10 mM): 0 | Relative Rate of Conversion S-enantiomer ([1]; amine (R,S) 10 mM): 100

CCC(N)c1ccccc1 (stereo not shown) [1-phenyl-1-aminopropane]
Relative Rate of Conversion R-enantiomer ([1]; amine (R,S) 20 mM): 11 | Relative Rate of Conversion S-enantiomer ([1]; amine (R,S) 20 mM): 100

CCCCCCC(C)N (stereo not shown) [2-aminooctane]
Relative Rate of Conversion R-enantiomer ([1]; amine (R,S) 5 mM): 0 | Relative Rate of Conversion S-enantiomer ([1]; amine (R,S) 5 mM): 100

CCCC(C)=O [2-pentanone]
Relative Rate of Conversion [5]: 33

CC(N)Cc1ccccc1 (stereo not shown) [3-phenyl-2-aminopropane]
Relative Rate of Conversion R-enantiomer ([1]; amine (R,S) 10 mM): 100 | Relative Rate of Conversion S-enantiomer ([1]; amine (R,S) 10 mM): 0 | Relative Rate of Conversion R-enantiomer ([1]; amine (R,S) 15 mM): 7 | Relative Rate of Conversion S-enantiomer ([1]; amine (R,S) 15 mM): 100

CC(N)CCCc1cccnc1 (stereo not shown) [5-(3-pyridyl)-2-aminopentane]
Relative Rate of Conversion R-enantiomer ([1]; amine (R,S) 5 mM): 0 | Relative Rate of Conversion S-enantiomer ([1]; amine (R,S) 5 mM): 100

NCCCC(=O)O [-aminobutyrate]
activity of β-alanine transaminase on the substrate (β-alanine transaminase): 43 | activity of -aminobutyrate transaminase on the substrate [6]: 100

NC1C=CC=C(C(=O)O)C1 (stereo not shown) [Gabaculine, reference compound]
Relative Rate of Conversion B. megaterium [2, 8]: 13 | Relative Rate of Conversion P. putida [4, 8]: 0

NO [Hydroxylamine, reference compound]
Relative Rate of Conversion B. megaterium [2, 8]: 10 | Relative Rate of Conversion P. aeruginosa [3, 8]: 0 | Relative Rate of Conversion P. putida [4, 8]: 3

C[C@@H](N)c1ccc(Br)cc1 [R-1-amino-1-(4-bromophenyl)ethane]
conversion to the nonchiral ketone by the transaminase [1]: unchanged

C[C@@H](N)c1ccccc1 [R-1-phenyl-1-aminoethane]
Specific Activity (units/mg) Acetate (Bacillus megaterium): 0.36 units/mg | Specific Activity (units/mg) Succinate (Bacillus megaterium): 0.27 units/mg | conversion to the nonchiral ketone by the transaminase [1]: unchanged
